Assay results as given in patent US20220267308A1, “Modulators of Excitatory Amino Acid Transporters and Methods Using Same” (The Wistar Institute of Anatomy and Biology, priority 2019, published 2022).
Read-outs that look alike come from different tables or passages of the source.

Assays:
cortical neurons [1] = experiment: neuroprotection in neuronal cultures, bi-laminar approach, OGD insult; type: cell-based; details: OGD for 20 min
Experimental: (§1) Top: Representative images (40× magnification) of 14 DIV cortical neurons in control conditions (FIG. 2A) or subjected to insult with 10 μM L-glutamate for 24 h (FIG. 2B). […] Bottom: Representative images of cortical neurons in control conditions (FIG. 2D) or subjected to insult with OGD for 20 min (FIG. 2E). […] Quantification performed 24 h after treatments in cultures stained for MAP-2 (green) and DAPI (blue). Surviving neurons were estimated by blind counting of 10 fields/coverslips, averages of triplicate determinations±SD (ANOVA followed by Dunnet's posthoc test, *p<0.05, **<0.01, p***<0.001, compared to control, #p<0.05, ###p<0.001, compared to insult).

cortical neurons [2] = experiment: neuroprotection in neuronal cultures, bi-laminar approach, L-glutamate insult; type: cell-based; details: 10 μM L-glutamate for 24 h
Experimental: as §1

EAAT2 [3] = molecular target: T1, EAAT2 (Homo sapiens, UniProt P43004); experiment: kinetic analysis of L-glutamate uptake in EAAT2-transfected COS-7 cells; type: cell-based; parameters: expressed in transfected cells; host or cells: COS-7; details: compound 10 nM, different concentrations of glutamate
T1 sequence (P43004 whole entry, the tested form may be a part): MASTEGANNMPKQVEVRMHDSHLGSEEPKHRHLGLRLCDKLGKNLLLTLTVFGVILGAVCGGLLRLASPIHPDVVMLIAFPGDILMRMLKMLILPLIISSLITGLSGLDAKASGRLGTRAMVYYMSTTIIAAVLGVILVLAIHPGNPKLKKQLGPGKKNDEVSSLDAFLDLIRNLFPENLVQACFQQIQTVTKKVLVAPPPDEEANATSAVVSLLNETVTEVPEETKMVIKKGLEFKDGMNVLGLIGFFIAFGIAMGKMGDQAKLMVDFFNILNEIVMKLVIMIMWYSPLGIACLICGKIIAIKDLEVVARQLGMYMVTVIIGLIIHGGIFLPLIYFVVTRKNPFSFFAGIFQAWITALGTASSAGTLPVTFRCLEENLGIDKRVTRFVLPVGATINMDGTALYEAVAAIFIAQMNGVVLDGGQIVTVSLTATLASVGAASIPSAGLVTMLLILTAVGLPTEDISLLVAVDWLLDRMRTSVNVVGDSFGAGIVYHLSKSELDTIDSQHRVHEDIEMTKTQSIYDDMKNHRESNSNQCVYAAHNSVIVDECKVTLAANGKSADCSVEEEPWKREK

[4] = pilocarpine in vivo model of epilepsy; details: osmotic pump 48 hours, final dose 4 mg/Kg, after pilocarpine 380 mg/Kg; p=0.0189
EAAT2 [5] = molecular target: T1, EAAT2; experiment: glutamate uptake mediated by EAAT2-expressing COS-7 cells; details: for EAAT2 Efficacy: bottom number of the cell
EAAT1 = molecular target: T2, EAAT1 (Homo sapiens, UniProt P43003); experiment: glutamate uptake mediated by EAAT1-expressing COS-7 cells; type: cell-based; details: for EAAT1 Efficacy: bottom number of the cell
T2 construct: expressed in transfected cells; host or cells: COS-7
T2 sequence (P43003 whole entry, the tested form may be a part): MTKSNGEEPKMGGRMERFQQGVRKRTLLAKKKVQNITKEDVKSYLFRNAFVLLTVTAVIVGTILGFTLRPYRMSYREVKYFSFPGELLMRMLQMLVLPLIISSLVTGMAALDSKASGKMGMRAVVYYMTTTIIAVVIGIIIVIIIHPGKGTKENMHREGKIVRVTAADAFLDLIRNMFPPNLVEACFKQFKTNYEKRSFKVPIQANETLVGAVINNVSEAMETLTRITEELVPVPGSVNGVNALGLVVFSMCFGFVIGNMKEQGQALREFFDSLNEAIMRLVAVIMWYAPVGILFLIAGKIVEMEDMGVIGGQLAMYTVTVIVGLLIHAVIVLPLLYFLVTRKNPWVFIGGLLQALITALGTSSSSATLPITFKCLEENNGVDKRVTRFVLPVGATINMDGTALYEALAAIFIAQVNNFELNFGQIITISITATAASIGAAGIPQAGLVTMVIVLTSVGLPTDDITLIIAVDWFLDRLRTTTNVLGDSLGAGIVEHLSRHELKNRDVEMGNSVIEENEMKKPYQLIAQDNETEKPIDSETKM

EAAT3 = molecular target: T3, EAAT3 (Homo sapiens, UniProt P43005); experiment: glutamate uptake mediated by EAAT3-expressing COS-7 cells; type: cell-based; details: for EAAT3 EC50 (nM): top number of the cell
T3 construct: expressed in transfected cells; host or cells: COS-7
T3 sequence (P43005 1-524): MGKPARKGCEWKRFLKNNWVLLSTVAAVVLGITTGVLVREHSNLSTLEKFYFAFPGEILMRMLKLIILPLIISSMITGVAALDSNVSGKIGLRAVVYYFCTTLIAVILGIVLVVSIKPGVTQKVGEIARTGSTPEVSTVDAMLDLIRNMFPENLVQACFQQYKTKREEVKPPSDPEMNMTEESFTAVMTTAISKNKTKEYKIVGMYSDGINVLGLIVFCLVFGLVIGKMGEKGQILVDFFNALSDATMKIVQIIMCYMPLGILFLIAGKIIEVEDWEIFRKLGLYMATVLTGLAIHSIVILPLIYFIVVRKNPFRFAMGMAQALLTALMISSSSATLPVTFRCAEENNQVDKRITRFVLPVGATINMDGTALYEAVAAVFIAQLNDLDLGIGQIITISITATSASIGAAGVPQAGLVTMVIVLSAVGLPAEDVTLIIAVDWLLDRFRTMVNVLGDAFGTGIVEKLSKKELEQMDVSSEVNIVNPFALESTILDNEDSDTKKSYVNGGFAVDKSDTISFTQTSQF

[6] = SNL (spinal nerve ligation) model; details: p<0.01 compared to vehicle
glia cells = details: for Km / Vmax: Glia
neuron-glia cultures = experiment: neuroprotection in mixed neuron-glia cultures; type: cell-based, rat
From the text: Immunostaining against neuronal marker MAP-2 (green), glial maker GFAP (red), and nuclear marker DAPI (blue). Surviving neurons were estimated by blind counting of 10 fields/coverslips, averages of triplicate determinations±SD (ANOVA followed by Dunnet's posthoc test, ***p<0.001, compared to control, ###p<0.001, compared to insult). FIGS. 7A-7E show the in vitro neuroprotective properties of second and third generation compounds after glutamate and oxygen glucose deprivation insults in mixed neuron/glia cultures. […] Immunostaining against neuronal marker MAP-2 (green), glial maker GFAP (red), and nuclear marker DAPI (blue). Images taken with 30× magnification with a confocal microscope.

Question: With `NC(CCCP(=O)(O)O)C(=O)O` (racemic) [APV, (DL)-2-amino-5-phosphonovaleric acid, reference compound] as the compound, how does the “cell death / surviving neurons” value (cortical neurons [1]; compound 100 μM) read?
Answer: attenuated cell death

Question: What about the “cell death / surviving neurons” value (cortical neurons [2]; compound 100 μM) of the same compound?
Answer: attenuate cell death

Question: For `CN1CCN(C(c2cccnc2)c2nnnn2CCc2ccccc2)CC1` (centres unmarked) [DA-023, 1-methyl-4-((1-phenethyl-1H-tetrazol-5-yl)(pyridin-3-yl)methyl)piperazine], which “cell death / surviving neurons” value (cortical neurons [1]; compound 100 nM) is on record?
Answer: attenuated cell death

Question: What about the “effect on KM (affinity for the substrate)” value (EAAT2 [3]) of the same compound?
Answer: no effect on KM

Question: And the “effect on Vmax (in words)” value (EAAT2 [3])?
Answer: increase in Vmax

Question: What about the “cell death / surviving neurons” value (cortical neurons [2]; compound 10 nM) of the same compound?
Answer: attenuate cell death

Question: And the “neuronal death (FJC+ cell numbers) in the hilus” value [4]?
Answer: significant reduction in the neuronal death

Question: And the “potency on transport augmentation (dose response curve)” value (EAAT2 [5]; EAAT2-expressing COS-7 cells)?
Answer: nM range

Question: What about the “efficacy on transport augmentation” value (EAAT2 [5]; EAAT2-expressing COS-7 cells, dose response curve) of the same compound?
Answer: < 150%

Question: Which “EAAT1 Efficacy” value (EAAT1) does the source give for `COc1ccc(C(c2nnnn2CCc2ccccc2)N2CCN(C3CCCCC3)CC2)cc1OC` (centres unmarked) [DA-050, 1-cyclohexyl-4-((3,4-dimethoxyphenyl)(1-phenethyl-1H-tetrazol-5-yl)methyl)piperazine] here?
Answer: 150.00 ± 21.21%

Question: And the EC50 (EAAT1; top number of the cell)?
Answer: 46 ± 36.8 nM

Question: What about the “EAAT3 EC50 (nM)” value (EAAT3) of the same compound?
Answer: No Effect

Question: What about the EC50 (EAAT2 [5]) of the same compound?
Answer: 0.5 ± 0.56 nM

Question: And the “EAAT2 Efficacy” value (EAAT2 [5])?
Answer: 261.50 ± 40.30%

Question: What does the source list for `CN1CCN(C(c2ccncc2)c2nnnn2CCc2ccccc2)CC1` (centres unmarked) [DA-058, 1-methyl-4-((1-phenethyl-1H-tetrazol-5-yl)(pyridin-4-yl)methyl)piperazine]?
Answer: EAAT1 Efficacy (EAAT1): 186.0 ± 41.01%; EC50 (EAAT1; top number of the cell): 2.24 ± 1.07 nM; EAAT3 EC50 (nM) (EAAT3): No Effect; EC50 (EAAT2 [5]): 0.4 ± 0.42 nM; EAAT2 Efficacy (EAAT2 [5]): 200.50 ± 58.60%

Question: For `COc1ccc2[nH]c(=O)c(C(c3nnnn3CCc3ccccc3)N3CCN(C4CCCCC4)CC3)cc2c1` (centres unmarked) [GT949], which “cell death / surviving neurons” value (cortical neurons [2]; compound 10 nM) is on record?
Answer: attenuate cell death

Question: Which analgesic response ([6]; 200 mg/kg) does the source give for `NCC1(CC(=O)O)CCCCC1` [Gabapentin, reference compound] here?
Answer: analgesic response

Question: With `CN1CCN(C(C(=O)NCCc2ccc(F)cc2)c2cccnc2)CC1` (centres unmarked) [NA-005, N-(4-fluorophenethyl)-2-(4-methylpiperazin-1-yl)-2-(pyridin-3-yl)acetamide] as the compound, how does the “EAAT1 Efficacy” value (EAAT1) read?
Answer: 189 ± 9.89%

Question: With `CN1CCN(C(C(=O)NCCc2ccc(F)cc2)c2ccc(C#N)cc2)CC1` (centres unmarked) [NA-014, 2-(4-cyanophenyl)-N-(4-fluorophenethyl)-2-(4-methylpiperazin-1-yl)acetamide] as the compound, how does the “EAAT1 EC50 (nM)” value (EAAT1; top number of the cell) read?
Answer: No Effect

Question: What about the “EAAT3 EC50 (nM)” value (EAAT3) of the same compound?
Answer: No Effect

Question: What about the analgesic response ([6]; 10 mg/kg) of the same compound?
Answer: analgesic response

Question: And the Km (glia cells; NA-014 100 nM)?
Answer: 52.5 ± 5.82 µM

Question: What about the Vmax (glia cells; NA-014 100 nM) of the same compound?
Answer: 42.35 ± 1.44 pmol/well/min

Question: What about the Km (glia cells; NA-014 500 nM) of the same compound?
Answer: 49.8 ± 8.3 µM

Question: And the Vmax (glia cells; NA-014 500 nM)?
Answer: 72.76 ± 3.67 pmol/well/min

Question: And the “KM versus vehicle (in words)” value (glia cells; cultured glia cells pre-incubated with 100 nM and 500 nM)?
Answer: not statistically different

Question: And the neuronal survival (neuron-glia cultures; 100 μM L-glutamate for 24 h, co-treatment with 100 nM compound)?
Answer: neuroprotective effect

Question: What about the “neuronal survival with co-application of EAAT inhibitor TBOA” value (neuron-glia cultures; L-glutamate insult, compound plus TBOA) of the same compound?
Answer: abolished by co-application of EAAT inhibitor TBOA

Question: With `CN1CCN(C(c2ccc(F)nc2)c2nnnn2CCc2ccccc2)CC1` (centres unmarked) [VY-3-285, 1-((6-fluoropyridin-3-yl)(1-phenethyl-1H-tetrazol-5-yl)methyl)-4-methylpiperazine] as the compound, how does the “EAAT1 Efficacy” value (EAAT1) read?
Answer: 2.75 ± 3.18 222 ± 55.72%

Question: What does the source list for `CN1CCN(C(c2ccc(O)nc2)c2nnnn2CCc2ccccc2)CC1` (centres unmarked) [VY-3-286, 5-((4-methylpiperazin-1-yl)(1-phenethyl-1H-tetrazol-5-yl)methyl)pyridin-2-ol]?
Answer: EAAT1 Efficacy (EAAT1): 160.25 ± 27.22%; EAAT3 Efficacy (EAAT3; bottom number of the cell): 130.50 ± 2.12%
